# Measured values from US5298509A, “Octahydronaphthoquinolizines, and methods of making and using thereof” (priority 1992, dated 1994).
# “Also recorded” adds a separate entry of the source. Like-named read-outs stand apart in the source and are kept apart here.
# Tests used:
# [1] = test system: sigma receptor; conditions: cited from earlier work
# [2] = test system: PCP site; conditions: cited from earlier work
# [3] = test system: D2 receptor; experiment: Dopamine D2 binding assay, (3H)-spiperone, bovine striatal homogenates
# Method: (§1) Radioligand binding assays were performed on the tricyclic (cis-cis) hexahydrojulolidine (HHJ), the parent tetracyclic (cis,cis) OHNQ (I-1) and 9-methoxy OHNQ (I-4), for binding to D2 and sigma receptors synthesized according to Example 1. The D2 assays were performed on bovine striatal homogenates using 0.50 nM (^3 H)-spiperone in the presence of 250 μM ketanserin (to inhibit association with some 5-HT receptors and spirodecanone sites), with non-specific binding defined using 10 μM sulpiride according to known methods. The sigma binding assay was performed on bovine and rat cerebellar homogenates using 2.0 nM (^3 H)-haloperidol in the presence of 25 nM spiperone (to inhibit association with D2 dopamine receptors); non-specific binding was defined in the presence of 1 μM unlabeled haloperidol. […] Sigma receptor assays on rat brain preparations using (^3 H)-DTG and (^3 H)-Pentazocine as the radiolabels are performed with good results. […] Additional assays have been performed for D-1 activity (using (^3 H)-SCH23390), and for α-1 and α-2 activity as well as several 5-HT subtypes (5-HT-1-a, 5-HT-3, 5-HT uptake site).
# [4] = test system: 5-HT-2 receptor; experiment: 5-HT-2 receptor activity assay; type: binding
# [5] = biological target: sigma receptors; experiment: Sigma receptor binding, rat liver preparations
# Method: (§2) As a non-limiting subexample, a sigma binding assay can use cerebellar tissue extracts to bind sigma receptor selectively by (^3 H)-halopendol with spiperone used to inhibit-binding to D2 receptors. […] These ligands are incubated at 30° C. with tissue (rat liver, rat cerebellum) homogenates for a 45 min period. In these assays, tissue concentrations used a range from 0.1-0.5 mg protein/mL, and radioligand concentrations range from 50 pM-10 μM. […] Filters are dried and counted for (^3 H)-activity in a liquid scintillation counter. The amount of ligand bound to the tissue receptor is measured with the aid of computer analysis of the data, using the LIGAND or an equivalent algorithm.
# (§3) Radioligand binding assays were performed on the tricyclic (cis-cis) hexahydrojulolidine (HHJ), the parent tetracyclic (cis,cis) OHNQ (I-1) and 9-methoxy OHNQ (I-4), for binding to D2 and sigma receptors synthesized according to Example 1. The D2 assays were performed on bovine striatal homogenates using 0.50 nM (^3 H)-spiperone in the presence of 250 μM ketanserin (to inhibit association with some 5-HT receptors and spirodecanone sites), with non-specific binding defined using 10 μM sulpiride according to known methods. The sigma binding assay was performed on bovine and rat cerebellar homogenates using 2.0 nM (^3 H)-haloperidol in the presence of 25 nM spiperone (to inhibit association with D2 dopamine receptors); non-specific binding was defined in the presence of 1 μM unlabeled haloperidol. […] Sigma receptor assays on rat brain preparations using (^3 H)-DTG and (^3 H)-Pentazocine as the radiolabels are performed with good results. […]
# (§4) Ten to twenty point assays are performed in triplicate using either 4 nM (^3 H)-haloperidol, 4 nM (^3 H)-DTG or 0.4 nM (^3 H)-DTG (New England Nuclear) as radiolabels, on rat liver, rat cerebellar or bovine cerebellar homogenates. […] Radioactivity is counted the following day at 40% efficiency.
# [6] = test system: drug-resistant patients; conditions: human, in vivo; cited from earlier work
# [7] = test system: sigma versus dopamine D2 receptors; conditions: cited from earlier work
# [8] = test system: sham-feeding rat; experiment: Sucrose ingestion (sham intake) in the sham-feeding rat; type: in vivo; conditions: 20% sucrose, 30-min test, N=6; for effect on volume of sucrose solution ingested (in words): (+)-SKF 10,047 5 mg/kg i.p., BMY 14802 4 mg/kg i.p., haloperidol 0.1 mg/kg i.p.
# From the text: As a non-limiting example, distinguishing between sigma receptor modulation and dopamine modulation may be accomplished using a D2 distinguishing assay, such as a behavioral assay system which discriminates the effects of dopamine D2 antagonists from sigma modulators or agents. A non-limiting example of a D2 /sigma distinguishing assay system involves quantification of ingestion of sucrose in a sham-feeding rat, where dopamine plays a critical role in the mediation of this behavior. See Schneider, L. H. et al. Eur. J. Pharmacol. 186:61-70 (1990) which is entirely incorporated herein by reference. […] The principal factor which compels the animal to maintain ingestion is the sweet taste of the sucrose solution; the involvement of the ascending mesolimbic dopamine system in this effect appears to be manifested as a modulation of the hedonic potency of the orosensory event (sweet taste). […] Neurosci. Abstr. 16:1028 (1990) which references are incorporated entirely herein by reference.
# Differentiation of sigma and dopamine activities are provided by a behavioral assay system which effectively discriminates the effects of dopamine D-2 antagonists from sigma agents. The assay system involves quantification of ingestion of sucrose in the sham-feeding rat.
# [9] = test system: sham-feeding rat; experiment: Microstructural analysis of licking/ingestive behavior in the sham-feeding rat; type: in vivo; conditions: SKF 5 mg/kg, BMY 4 mg/kg, HAL 0.1 mg/kg, i.p.; for interlick intervals (in words): range 0-250 msec
# From the text: Motoric components of the ingestive behavior may be differentiated from the "rewarding", sensory components by the use of microstructural analysis, a computer-controlled device which records the time at which each animal licks, to the nearest fractional millisecond. Analysis of licking and ingestive behavior in bursts is monitored through a fixed time test such that sigma agents may influence ingestive behavior either through the motor output systems or through nigrostriatal dopamine systems. The role for sigma sites in motor output systems include those muscles which are associated with licking, biting, and swallowing.
# This consists of the use of a computer-controlled device which records the time at which each animal licks, to the nearest fractional millisecond. This then allows analysis of licking and ingestive behavior in bursts through a 30-minute test.
# Using this behavioral assay system, with peripheral administration of the various selective drugs, rats (N=6) received 20% sucrose during a 30-min test, such that there was no effect of the sigma agents (+)-SKF 10,047 (5 mg/kg, i.p.; SKF) or BMY 14802 (4 mg/kg, i.p.; BMY) depending upon the volume of the sucrose solution which was ingested. […] These changes are attributed to a shift in the mean of the distribution histogram of interlick intervals. […] The shift in interlick interval distribution is expected to arise from occupancy of hindbrain sigma sites, possibly in the reticular formation, which are involved in definition of the lick rate in the rat.
# [10] = test system: dopamine D2 receptor; conditions: cited from earlier work
# [11] = test system: sigma receptors; experiment: Sigma binding assay, (3H)-haloperidol, bovine cerebellar homogenates; conditions: bovine cerebellar preparation
# Method: as §2, §3, §4
# [12] = test system: sigma receptors; experiment: Sigma binding assay, (3H)-haloperidol, rat cerebellar homogenates; conditions: for binding to sigma sites (in words): rat cerebellar preparation
# Method: as §2, §1
# Crude tissue homogenates are prepared by the following general procedure. Frozen tissue is thawed and homogenized in a buffer containing 50 mM Tris-HCI, 120 mM NaCl, 1 mM MgCl2, and 5 mM KCl, pH 8.0. This tissue suspension is sedimented at 100,000×g for a 30 min. period. Following centrifugation, the supernatant is discarded and the resultant pellet is resuspended in the same buffer solution, and respun as previously described.
# Ten to twenty point assays are performed in triplicate using either 4 nM (^3 H)-haloperidol, 4 nM (^3 H)-DTG or 0.4 nM (^3 H)-DTG (New England Nuclear) as radiolabels, on rat liver, rat cerebellar or bovine cerebellar homogenates. The concentration of the displacing agent generally ranges between 0.2 nM and 64 μM in a final volume of 2 mL. Non-specific binding is defined by the presence of 1 μM unlabeled haloperidol. Spiperone at a concentration of 25 nM is added in the assays performed with (^3 H)-haloperidol in order to block D2 receptor sites. The buffer system employed is as in the tissue preparation as presented herein. Incubation is carried out for one hour at room temperature after addition of the tissue. Samples are rapidly filtered through Schleicher and Schuell #32 glass filters presoaked with 0.1% polyethyleneimine, on a 24-position cell harvester (Brandel). The filters are washed with ice-cold 10 mM Tris buffer, pH 7.7, and then placed in 2 mL of scintillation fluid. Radioactivity is counted the following day at 40% efficiency.
# [13] = solubilized rat liver preparations
compound,measurement,setting,value
"CCCN1CCC[C@H](c2cccc(O)c2)C1 [(+)-(^3 H)-3-PPP, (+)-(^3 H)-3-(+)-3-(3-hydroxyphenyl) N-(1-propyl)piperidine]",affinity for sigma receptors (in words),[1],labeled with high affinity
"C=CCN1CCC2(C)c3cc(O)ccc3CC1C2C (stereo not drawn) [(^3 H)-NANM, N-allylnormetazocine]",affinity for sigma receptors (in words),[1],high affinity
same,affinity toward PCP sites (in words),[2],low affinity
O=C(CCCN1CCC2(CC1)C(=O)NCN2c1ccccc1)c1ccc(F)cc1 [spiperone],affinity for sigma receptors (in words),[1],not spiperone
"COc1ccc2c(c1)C1CCCN3CCCC(C2)C13 (stereo not drawn) [(trans,trans) 11-methoxy OHNQ]",activity at D-2 receptor sites (in words),[3],modest but selective activity
same,activity at 5-HT-2 receptor sites (in words),[4],modest but selective activity
"c1ccc2c(c1)CC1CCCN3CCCC2C13 (stereo not drawn) [unsubstituted (trans,trans) OHNQ]",IC50,[5]; crude liver homogenates,157 nM
same,IC50,[5]; [13],87 nM
same,affinity to sigma receptors (in words),[5]; [13],high affinity
same,activity at D-2 receptor sites (in words),[3],modest but selective activity
same,activity at 5-HT-2 receptor sites (in words),[4],modest but selective activity
"Cl.Fc1ccc2[nH]c3c(c2c1)CN(CCCc1cccnc1)CC3 [WY 47,384]",affinity for sigma receptors (in words),[1],moderate to high affinity
CN1CCN(C2=Nc3cc(Cl)ccc3Nc3ccccc32)CC1 [clozapine],agranulocytosis / side effects (in words),[6],"irreversible, potentially fatal agranulocytosis in a minority of patients; also recorded: less motor side effects; also recorded: severe and fatal agranulocytosis"
O=C1CC2(CCCC2)CC(=O)N1CCCCN1CCN(c2ncccn2)CC1 [buspirone],affinity for sigma receptors (in words),[1],high affinity
CCCN1CCCC(c2cccc(O)c2)C1 (stereo not drawn) [3-PPP],affinity for sigma versus dopaminergic receptors (in words),[7],higher affinity for sigma receptor sites than for dopaminergic receptors
O=C(CCCN1CCC(O)(c2ccc(Cl)cc2)CC1)c1ccc(F)cc1 [haloperidol],effect on volume of sucrose solution ingested (in words),[8],highly significant reduction
same,sham intake of the sucrose solution,"[8]; haloperidol 0.1 mg/kg, i.p., vs 33.7±2.7 ml, p<0.001",15 ± 2.7 mL
same,mean lick cluster size (in words),[9],not SKF or HAL
same,interlick intervals (in words),[9],not SKF or HAL
same,affinity for sigma receptors (in words),[1],high affinity
same,affinity for sigma receptors (in words),[1]; listed as (^3 H)-haloperidol,labeled with high affinity
same,affinity for sigma receptors (in words),[1]; listed as Haloperidol,very high affinity
same,activity at dopamine D2 receptor (in words),[10],high affinity
"C=CCN1CCC2(C)c3cc(O)ccc3CC1C2C (single isomer, unassigned; (+)) [(+)-SKF 10,047]",effect on volume of sucrose solution ingested (in words),[8],no effect
same,mean lick cluster size (in words),[9],not SKF or HAL
same,interlick intervals (in words),[9],not SKF or HAL
same,enantioselectivity for sigma sites (in words),[1]; (+)-NANM versus (-)-NANM,more potent than (-)-NANM
Cl.N#Cc1cccnc1N1CCN(CCCCN2C(=O)SC3(CCCC3)C2=O)CC1 [BMY 13980],affinity for sigma receptors (in words),[1],moderate to high affinity
"c1ccc(C2(N3CCCCC3)CCCCC2)cc1 [(^3 H)-PCP, phencyclidine]",affinity for sigma receptors (in words),[1],not labeled
"c1csc(C2(N3CCCCC3)CCCCC2)c1 [(^3 H)-TCP, (^3 H)-1-((2-thienyl)cyclohexyl)piperidine]",affinity for sigma receptors (in words),[1],not labeled
O=C1CC2(CCCC2)CC(=O)N1CCCCN1CCN(c2nsc3ccccc23)CC1 [tiospirone],affinity for sigma receptors (in words),[1],moderate to high affinity
COc1ccc2c(c1)C1CCCN3CCCC(C2)C13 (stereo not drawn) [11-methoxy OHNQ],binding to sigma sites (in words),[11],weak sigma binding
same,IC50,"[11]; 2.0 nM (3H)-haloperidol, 25 nM spiperone",1500 nM
same,sigma potency compared with reference compounds (in words),[12]; rat cerebellar membranes,"on the order of that observed for (+)-NaMM, (+)-3-PPP, as well as cis-fused tricyclic octahydrobenzo-(f) quinolines with hydroxyl groups on the aromatic ring"
same,IC50,"[12]; rat cerebellar membranes, 2.0 nM (3H)-haloperidol, 25 nM spiperone",300 nM
same,binding to sigma sites (in words),[12],considerably stronger binding
same,"sigma binding, rat versus bovine (in words)",[12]; rat cerebellar vs bovine cerebellar receptors,"bound more specifically and with a higher affinity to rat cerebellar sigma receptors, than to bovine cerebellar receptors"
CCN1CCC[C@H]1CNC(=O)c1c(OC)ccc(Br)c1OC [remoxipride],affinity for sigma receptors (in words),[1],moderate to high affinity
same,affinity toward PCP sites (in words),[2],little or no affinity
C[C@@H]1CN(CCCn2c3ccccc3c3ccccc32)C[C@H](C)N1 [rimcazole],affinity for sigma receptors (in words),[1],moderate to high affinity
same,affinity toward PCP sites (in words),[2],little or no affinity
same,selectivity for sigma versus dopamine D2 receptors,[7],10 to 15 fold
OC(CCCN1CCN(c2ncc(F)cn2)CC1)c1ccc(F)cc1 (stereo not drawn) [BMY 14802],effect on volume of sucrose solution ingested (in words),[8],no effect
same,mean lick cluster size (in words),[9],smaller mean lick cluster size
same,interlick intervals (in words),[9],significant decrease of interlick intervals
same,affinity for sigma receptors (in words),[1],moderate to high affinity
same,affinity toward PCP sites (in words),[2],little or no affinity
same,selectivity for sigma versus dopamine D2 receptors,[7],10 to 15 fold
C=CCN1CC[C@]23c4c5ccc(O)c4O[C@H]2C(=O)CC[C@@]3(O)[C@H]1C5 [naloxone],block of (3H)-NANM binding (in words),[1]; typical opiate receptor antagonists,not blocked
"C1CC2CCCN3CCCC(C1)C23 (stereo not drawn) [HHJ, hexahydrojulolidine]",binding to sigma sites (in words),[11],did not exhibit binding
same,binding to sigma sites (in words),[12],did not exhibit binding
